Literature values in patent publication US10285958B2, “Genotype- or phenotype-based drug formulation” (BAYER AKTIENGESELLSCHAFT, priority 2012, dated 2019).
Where two headings read alike, the source gives them in different places. One block for each compound: values may come before it.

Assays:
[1] = biological target: polymorphic cytochrome P450 (CYP) 2D6 (Homo sapiens, UniProt P10635); conditions: humans
Chain of polymorphic cytochrome P450 (CYP) 2D6 (P10635 whole entry): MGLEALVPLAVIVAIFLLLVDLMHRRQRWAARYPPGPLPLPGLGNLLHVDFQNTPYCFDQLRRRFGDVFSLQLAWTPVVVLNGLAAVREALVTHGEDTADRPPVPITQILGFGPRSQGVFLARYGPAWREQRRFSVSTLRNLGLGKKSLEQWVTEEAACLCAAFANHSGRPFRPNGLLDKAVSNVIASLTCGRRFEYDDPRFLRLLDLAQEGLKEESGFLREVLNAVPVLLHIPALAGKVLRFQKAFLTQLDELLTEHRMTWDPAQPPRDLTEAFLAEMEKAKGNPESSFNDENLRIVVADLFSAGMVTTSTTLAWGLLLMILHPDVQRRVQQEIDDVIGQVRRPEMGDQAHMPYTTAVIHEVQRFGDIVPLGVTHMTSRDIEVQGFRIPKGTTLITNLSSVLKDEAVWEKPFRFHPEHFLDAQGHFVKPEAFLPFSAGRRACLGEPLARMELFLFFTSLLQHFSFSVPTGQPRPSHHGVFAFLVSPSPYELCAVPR

formation of endoxifen from N-desmethyltamoxifen via CYP2D6 [1]: exclusively
SMILES: CC/C(=C(\c1ccccc1)c1ccc(OCCNC)cc1)c1ccccc1 [N-desmethyltamoxifen]

endoxifen concentration in blood under tamoxifen therapy (CYP2D6 IM, versus EM or UM phenotype): distinctly below
endoxifen concentration in blood under tamoxifen therapy (CYP2D6 PM): very low
SMILES: CC/C(=C(\c1ccc(O)cc1)c1ccc(OCCNC)cc1)c1ccccc1 [endoxifen]

time until steady-state concentration of endoxifen is achieved (standard dosage 20 mg of tamoxifen, European patients of CYP2D6 EM genotype or phenotype): about 80 days
SMILES: CC/C(=C(\c1ccccc1)c1ccc(OCCN(C)C)cc1)c1ccccc1 [tamoxifen]
endoxifen concentrations after increased tamoxifen dose (up to 40 mg of tamoxifen per day as two individual doses, CYP2D6 IMs and PMs, versus EMs on 20 mg): did not lead to the endoxifen concentrations observed in CYP2D6 EMs
